Results: patent publication US20090291923A1, “TRIOXANE DIMERS HAVING HIGH ANTICANCER AND LONG-LASTING ANTIMALARIAL ACTIVITIES” (priority 2005, published 2009)
Values after ≈ are worked out from the molar mass of the structure shown. Like-named read-outs stand apart in the source and are kept apart here. One block for each molecule: values may come before it.

How the values were obtained:
[1] = system: chloroquine-sensitive Plasmodium falciparum (NF 54) parasites; assay: in vitro antimalarial potency, standard assay; format: cell-based; settings: for IC50: Plasmodium falciparum, read-out: IC50 (nM), Antimalarial Activities in vitro
[2] = system: GFP strain P. berghei; assay: in vivo antimalarial ED50 in mice, single administration SC or PO; settings: for ED50: Plasmodium berghei, in Mus musculus; for overt toxicity / behavioral modification in the mice: single dose of 3, 10 or 30 mg/kg SC or PO
[3] = system: panel of 60 human cancer cell lines; assay: NCI panel of 60 human cancer cell lines, growth inhibition; format: cell-based; settings: nanomolar to micromolar concentrations
Excerpt: Cell growth was inhibited in a dose-dependent manner.

[4] = system: normal ectocervical cells HCX (primary normal cervical cells); assay: XTT cell viability assay, normal cervical cells; format: cell-based, human
Protocol: Primary human ectocervical keratinocytes were derived from fresh cervical tissue obtained from the Cooperative Human Tissue Network (CHTN) within 24 hours after removal from patients undergoing hysterectomies for benign non-cervical uterine diseases. Standard overnight dispase treatment and subsequent trypsinization procedures were used to isolate ectocervical epithelial cells, which were cultured in serum-free keratinocyte medium (KSFM) supplemented with bovine pituitary extract and epidermal growth factor according to the manufacturer's protocol (Invitrogen, Carlsbad, Calif.). […]
(§1) Cell viability was determined using 2.5×10^3 cells were plated in triplicates in 96 well tissue culture microplates in the appropriate culture medium and incubated for 24 hours in a humidified atmosphere at 37° C., 5% CO2. […] Cell viability (absorbance) was measured using an ELISA reader at 450 nm with a reference wavelength at 650 nm. Results were calculated as the percentage of cultures exposed to solvent control only. […]
as §1, with “2.5×10^3” for “Cell viability was determined using 2.5×10^3”

[5] = system: human cervical cancer cell line HeLa; assay: XTT proliferation / cell viability assay, HeLa; format: cell-based; settings: for IC50: Homo sapiens, XTT based assay, read-out: IC50, HeLa cells
[6] = solubility in aqueous pH 7.4 buffer; format: physicochemical; settings: aqueous pH 7.4 buffer solution, pH 7.4, 25° C.
[7] = system: Plasmodium berghei infected mice; format: in vivo
[8] = system: malaria-infected mice (GFP strain P. berghei); assay: oral in vivo antimalarial activity in malaria-infected mice, three doses over three days
[9] = chloroquine-sensitive P. falciparum NF 54, quadruplicates

IC50 [1, 9]: 6.6 ± 0.76 nM
Structure (SMILES): C[C@@H]1CC[C@H]2[C@@H](C)C(=O)O[C@@H]3O[C@]4(C)CC[C@@H]1[C@]32OO4 [Artemisinin, artemisinin, reference compound]

IC50 [1, 9]: 2.9 nM
Structure (SMILES): C=C(CC[C@H]1O[C@@H]2O[C@@]3(C)CC[C@H]4[C@H](C)CC[C@@H]([C@H]1C)[C@@]24OO3)C(=C)CC[C@H]1O[C@@H]2O[C@@]3(C)CC[C@H]4[C@H](C)CC[C@@H]([C@H]1C)[C@@]24OO3 [dimer 4]

Structure (SMILES): COC(=O)c1cc(CC[C@H]2O[C@@H]3O[C@@]4(C)CC[C@H]5[C@H](C)CC[C@@H]([C@H]2C)[C@@]35OO4)c(CC[C@H]2O[C@@H]3O[C@@]4(C)CC[C@H]5[C@H](C)CC[C@@H]([C@H]2C)[C@@]35OO4)cc1C(=O)OC [dimer 5]
ED50 ([2]; sc, read-out: SC ED50): 0.71 mg/kg
overt toxicity / behavioral modification in the mice [2]: Neither over toxicity nor behavioral modification was observed
preliminary growth inhibitory activity, selectivity in the panel [3]: extremely selective and highly potent at inhibiting the growth of only non-small cell lung carcinoma HOP-92 cells, melanoma SK-MEL-5 cells, and breast cancer BT-549 cells
IC50 [1, 9]: 1.6 nM
toxicity to primary normal cervical cells [4]: without being toxic
times more potent than trioxane monomer DHA [5]: 10-20 times
IC50 [5]: 500 nM

solubility [6]: ~14 mg/mL (≈ 18.5 mM)
IC50 [1, 9]: 360 nM
Structure (SMILES): C[C@H]1[C@@H](CCc2cc(C(=O)O)c(C(=O)O)cc2CC[C@H]2O[C@@H]3O[C@@]4(C)CC[C@H]5[C@H](C)CC[C@@H]([C@H]2C)[C@@]35OO4)O[C@@H]2O[C@@]3(C)CC[C@H]4[C@H](C)CC[C@@H]1[C@@]24OO3 [dimer 6]

Structure (SMILES): C[C@H]1[C@@H](CCc2cc(CO)c(CO)cc2CC[C@H]2O[C@@H]3O[C@@]4(C)CC[C@H]5[C@H](C)CC[C@@H]([C@H]2C)[C@@]35OO4)O[C@@H]2O[C@@]3(C)CC[C@H]4[C@H](C)CC[C@@H]1[C@@]24OO3 [dimer 7]
ED50 ([2]; po, read-out: PO ED50): 2.6 mg/kg
ED50 ([2]; sc, read-out: SC ED50): 0.06 mg/kg
times more efficacious than sodium artesunate administered PO ([2]; mice, PO): approximately 1.5 times
overt toxicity / behavioral modification in the mice [2]: Neither over toxicity nor behavioral modification was observed
IC50 [1, 9]: 0.77 nM
times more antimalarially active than artemisinin ([1]; in vitro, P. falciparum NF 54): approximately 10 times
toxicity to primary normal cervical cells [4]: without being toxic
times more potent than trioxane monomer DHA [5]: 110-220 times
IC50 [5]: 46.5 nM

Structure (SMILES): C[C@H]1[C@@H](CCc2cc3c(cc2CC[C@H]2O[C@@H]4O[C@@]5(C)CC[C@H]6[C@H](C)CC[C@@H]([C@H]2C)[C@@]46OO5)COP(=O)(Oc2ccccc2)OC3)O[C@@H]2O[C@@]3(C)CC[C@H]4[C@H](C)CC[C@@H]1[C@@]24OO3 (some centres unmarked) [dimer 9]
IC50 [1]: 3.7 nM

Structure (SMILES): C[C@H]1[C@H](OC(=O)CCC(=O)[O-])O[C@@H]2O[C@@]3(C)CC[C@H]4[C@H](C)CC[C@@H]1[C@@]24OO3.[Na+] [sodium artesunate]
PO ED50 ([2]; mice, single administration, oral): 4.0 mg/kg
SC ED50 ([2]; mice, single administration, subcutaneous): 2.2 mg/kg
life of the mice prolonged to ([7]; 30 mg/kg single dose, no drug 7 days): 14 days
malaria parasites killed ([7]; single dose 30 mg/kg, subcutaneous): similarly efficacious
Avg Mouse Survival (oral, 3 × 10 mg/kg) [8]: 6.7
